Measured values from patent publication US12491170B2, “Stable treprostinil prodrugs” (United Therapeutics Corporation, priority 2020, dated 2025).
Like-named read-outs stand apart in the source and are kept apart here. Values belong to the compound of their own block, whether it stands above or below them.

What was measured:
[1] = Stability in liver microsomes, human; conditions: for AUC: human
[2] = Stability in liver microsomes, rat
[3] = Stability in liver microsomes, dog
[4] = Stability in cryopreserved hepatocytes, human; conditions: for AUC: human
[5] = Stability in cryopreserved hepatocytes, rat; conditions: for AUC: rat
[6] = Stability in cryopreserved hepatocytes, dog; conditions: for AUC: dog
[7] = Stability in human subcutaneous skin homogenate; conditions: for AUC: human
[8] = rat
[9] = dog

Trep Concentration 0 min [1]: 0 µM
Trep Concentration 10 min [1]: 0.0342 µM
Trep Concentration 20 min [1]: 0.0556 µM
Trep Concentration 30 min [1]: 0.0656 µM
Trep Concentration 60 min [1]: 0.0835 µM
AUC [1]: 3.46 µmol·min/L
Trep Concentration 0 min [2]: 0 µM
Trep Concentration 10 min [2]: 0.0425 µM
Trep Concentration 20 min [2]: 0.0633 µM
Trep Concentration 30 min [2]: 0.0882 µM
Trep Concentration 60 min [2]: 0.123 µM
Trep Concentration 0 min [3]: 0 µM
Trep Concentration 10 min [3]: 0.0211 µM
Trep Concentration 20 min [3]: 0.0334 µM
Trep Concentration 30 min [3]: 0.0485 µM
Trep Concentration 60 min [3]: 0.0841 µM
Trep Concentration (μM) 0 min [4]: 0 µM
Trep Concentration (μM) 15 min [4]: 0.00507 µM
Trep Concentration (μM) 30 min [4]: 0.00509 µM
Trep Concentration (μM) 60 min [4]: 0.00568 µM
Trep Concentration (μM) 120 min [4]: 0.0061 µM
AUC [4]: 0.63 µmol·min/L
Trep Concentration (μM) 0 min [5]: 0 µM
Trep Concentration (μM) 15 min [5]: 0.0144 µM
Trep Concentration (μM) 30 min [5]: 0.0194 µM
Trep Concentration (μM) 60 min [5]: 0.0209 µM
Trep Concentration (μM) 120 min [5]: 0.0224 µM
AUC [5]: 2.27 µmol·min/L
Trep Concentration (μM) 0 min [6]: 0 µM
Trep Concentration (μM) 15 min [6]: 0.00361 µM
Trep Concentration (μM) 30 min [6]: 0.00376 µM
Trep Concentration (μM) 60 min [6]: 0.00437 µM
Trep Concentration (μM) 120 min [6]: 0.00465 µM
AUC [6]: 0.47 µmol·min/L
Trep Concentration 0 min [7]: 0 µM
Trep Concentration 30 min [7]: 0 µM
Trep Concentration 60 min [7]: 0 µM
Trep Concentration 120 min [7]: 0 µM
AUC [7]: 0.00 µmol·min/L
AUC [8]: 4.67 µmol·min/L
AUC [9]: 2.78 µmol·min/L
SMILES: CCCCCC(CCC1C(O)CC2Cc3c(cccc3OCC(=O)O)CC21)OCCC (stereo not shown) [XLVI]

Trep Concentration 0 min [1]: 0.048 µM
Trep Concentration 10 min [1]: 0.087 µM
Trep Concentration 20 min [1]: 0.092 µM
Trep Concentration 30 min [1]: 0.1 µM
Trep Concentration 60 min [1]: 0.16 µM
AUC [1]: 6.43 µmol·min/L
Trep Concentration 0 min [2]: 0.12 µM
Trep Concentration 10 min [2]: 0.24 µM
Trep Concentration 20 min [2]: 0.29 µM
Trep Concentration 30 min [2]: 0.38 µM
Trep Concentration 60 min [2]: 0.54 µM
Trep Concentration 0 min [3]: 0.019 µM
Trep Concentration 10 min [3]: 0.044 µM
Trep Concentration 20 min [3]: 0.087 µM
Trep Concentration 30 min [3]: 0.11 µM
Trep Concentration 60 min [3]: 0.2 µM
Trep Concentration (μM) 0 min [4]: 0 µM
Trep Concentration (μM) 15 min [4]: 0.1 µM
Trep Concentration (μM) 30 min [4]: 0.16 µM
Trep Concentration (μM) 60 min [4]: 0.246 µM
Trep Concentration (μM) 120 min [4]: 0.344 µM
AUC [4]: 26.49 µmol·min/L
Trep Concentration (μM) 0 min [5]: 0.0112 µM
Trep Concentration (μM) 15 min [5]: 0.441 µM
Trep Concentration (μM) 30 min [5]: 0.542 µM
Trep Concentration (μM) 60 min [5]: 0.594 µM
Trep Concentration (μM) 120 min [5]: 0.609 µM
AUC [5]: 63.89 µmol·min/L
Trep Concentration (μM) 0 min [6]: 0 µM
Trep Concentration (μM) 15 min [6]: 0.0459 µM
Trep Concentration (μM) 30 min [6]: 0.0824 µM
Trep Concentration (μM) 60 min [6]: 0.136 µM
Trep Concentration (μM) 120 min [6]: 0.198 µM
AUC [6]: 14.60 µmol·min/L
Trep Concentration 0 min [7]: 0 µM
Trep Concentration 30 min [7]: 0 µM
Trep Concentration 60 min [7]: 0.019 µM
Trep Concentration 120 min [7]: 0.03 µM
AUC [7]: 1.76 µmol·min/L
AUC [8]: 21.60 µmol·min/L
AUC [9]: 6.61 µmol·min/L
SMILES: CCCCCC(CCC1C(O)CC2Cc3c(cccc3OCC(=O)O)CC21)OC(=O)CCC(=O)O (stereo not shown) [XX]

Trep Concentration 0 min [1]: 0.00583 µM
Trep Concentration 10 min [1]: 0.104 µM
Trep Concentration 20 min [1]: 0.156 µM
Trep Concentration 30 min [1]: 0.21 µM
Trep Concentration 60 min [1]: 0.292 µM
AUC [1]: 11.21 µmol·min/L
Trep Concentration 0 min [2]: 0 µM
Trep Concentration 10 min [2]: 0.00607 µM
Trep Concentration 20 min [2]: 0.00992 µM
Trep Concentration 30 min [2]: 0.0162 µM
Trep Concentration 60 min [2]: 0.023 µM
Trep Concentration 0 min [3]: 0 µM
Trep Concentration 10 min [3]: 0 µM
Trep Concentration 20 min [3]: 0.00323 µM
Trep Concentration 30 min [3]: 0.00529 µM
Trep Concentration 60 min [3]: 0.00637 µM
Trep Concentration (μM) 0 min [4]: 0 µM
Trep Concentration (μM) 15 min [4]: 0.0417 µM
Trep Concentration (μM) 30 min [4]: 0.0533 µM
Trep Concentration (μM) 60 min [4]: 0.0724 µM
Trep Concentration (μM) 120 min [4]: 0.0734 µM
AUC [4]: 7.29 µmol·min/L
Trep Concentration (μM) 0 min [5]: 0 µM
Trep Concentration (μM) 15 min [5]: 0.00378 µM
Trep Concentration (μM) 30 min [5]: 0.00483 µM
Trep Concentration (μM) 60 min [5]: 0.00537 µM
Trep Concentration (μM) 120 min [5]: 0.00521 µM
AUC [5]: 0.56 µmol·min/L
Trep Concentration (μM) 0 min [6]: 0 µM
Trep Concentration (μM) 15 min [6]: 0 µM
Trep Concentration (μM) 30 min [6]: 0 µM
Trep Concentration (μM) 60 min [6]: 0 µM
Trep Concentration (μM) 120 min [6]: 0 µM
AUC [6]: 0.00 µmol·min/L
Trep Concentration 0 min [7]: 0 µM
Trep Concentration 30 min [7]: 0 µM
Trep Concentration 60 min [7]: 0 µM
Trep Concentration 120 min [7]: 0 µM
AUC [7]: 0.00 µmol·min/L
AUC [8]: 0.83 µmol·min/L
AUC [9]: 0.23 µmol·min/L
SMILES: CCCCCC(CCC1C(O)CC2Cc3c(cccc3OCC(=O)O)CC21)OC (stereo not shown) [XLV]

Trep Concentration 0 min [1]: 0.361 µM
Trep Concentration 10 min [1]: 0.297 µM
Trep Concentration 20 min [1]: 0.293 µM
Trep Concentration 30 min [1]: 0.273 µM
Trep Concentration 60 min [1]: 0.219 µM
AUC [1]: 16.45 µmol·min/L
Trep Concentration 0 min [2]: 0.322 µM
Trep Concentration 10 min [2]: 0.296 µM
Trep Concentration 20 min [2]: 0.314 µM
Trep Concentration 30 min [2]: 0.308 µM
Trep Concentration 60 min [2]: 0.29 µM
Trep Concentration 0 min [3]: 0.335 µM
Trep Concentration 10 min [3]: 0.312 µM
Trep Concentration 20 min [3]: 0.311 µM
Trep Concentration 30 min [3]: 0.308 µM
Trep Concentration 60 min [3]: 0.323 µM
Trep Concentration (μM) 0 min [4]: 0.297 µM
Trep Concentration (μM) 15 min [4]: 0.274 µM
Trep Concentration (μM) 30 min [4]: 0.298 µM
Trep Concentration (μM) 60 min [4]: 0.275 µM
Trep Concentration (μM) 120 min [4]: 0.217 µM
AUC [4]: 31.93 µmol·min/L
Trep Concentration (μM) 0 min [5]: 0.33 µM
Trep Concentration (μM) 15 min [5]: 0.309 µM
Trep Concentration (μM) 30 min [5]: 0.299 µM
Trep Concentration (μM) 60 min [5]: 0.307 µM
Trep Concentration (μM) 120 min [5]: 0.3 µM
AUC [5]: 36.65 µmol·min/L
Trep Concentration (μM) 0 min [6]: 0.296 µM
Trep Concentration (μM) 15 min [6]: 0.242 µM
Trep Concentration (μM) 30 min [6]: 0.197 µM
Trep Concentration (μM) 60 min [6]: 0.155 µM
Trep Concentration (μM) 120 min [6]: 0.137 µM
AUC [6]: 21.37 µmol·min/L
Trep Concentration 0 min [7]: 0 µM
Trep Concentration 30 min [7]: 0 µM
Trep Concentration 60 min [7]: 0 µM
Trep Concentration 120 min [7]: 0 µM
AUC [7]: 0.00 µmol·min/L
AUC [8]: 18.22 µmol·min/L
AUC [9]: 18.91 µmol·min/L
SMILES: CCCCCC(CCC1C(O)CC2Cc3c(cccc3OCC(=O)O)CC21)OC(N)=O (stereo not shown) [XLII]

Trep Concentration 0 min [1]: 0.911 µM
Trep Concentration 10 min [1]: 0.752 µM
Trep Concentration 20 min [1]: 0.667 µM
Trep Concentration 30 min [1]: 0.596 µM
Trep Concentration 60 min [1]: 0.351 µM
AUC [1]: 35.93 µmol·min/L
Trep Concentration 0 min [2]: 0.803 µM
Trep Concentration 10 min [2]: 0.882 µM
Trep Concentration 20 min [2]: 0.91 µM
Trep Concentration 30 min [2]: 0.902 µM
Trep Concentration 60 min [2]: 0.753 µM
Trep Concentration 0 min [3]: 0.453 µM
Trep Concentration 10 min [3]: 0.548 µM
Trep Concentration 20 min [3]: 0.592 µM
Trep Concentration 30 min [3]: 0.603 µM
Trep Concentration 60 min [3]: 0.627 µM
Trep Concentration (μM) 0 min [4]: 0.0116 µM
Trep Concentration (μM) 15 min [4]: 0.521 µM
Trep Concentration (μM) 30 min [4]: 0.509 µM
Trep Concentration (μM) 60 min [4]: 0.458 µM
Trep Concentration (μM) 120 min [4]: 0.411 µM
AUC [4]: 52.29 µmol·min/L
Trep Concentration (μM) 0 min [5]: 0.0456 µM
Trep Concentration (μM) 15 min [5]: 0.374 µM
Trep Concentration (μM) 30 min [5]: 0.291 µM
Trep Concentration (μM) 60 min [5]: 0.234 µM
Trep Concentration (μM) 120 min [5]: 0.206 µM
AUC [5]: 29.21 µmol·min/L
Trep Concentration (μM) 0 min [6]: 0.0196 µM
Trep Concentration (μM) 15 min [6]: 0.466 µM
Trep Concentration (μM) 30 min [6]: 0.514 µM
Trep Concentration (μM) 60 min [6]: 0.485 µM
Trep Concentration (μM) 120 min [6]: 0.451 µM
AUC [6]: 54.06 µmol·min/L
Trep Concentration 0 min [7]: 0 µM
Trep Concentration 30 min [7]: 0.0793 µM
Trep Concentration 60 min [7]: 0.155 µM
Trep Concentration 120 min [7]: 0.283 µM
AUC [7]: 17.84 µmol·min/L
AUC [8]: 51.27 µmol·min/L
AUC [9]: 35.13 µmol·min/L
SMILES: CCCCCC(CCC1C(O)CC2Cc3c(cccc3OCC(=O)O)CC21)OC(=O)COc1ccc(OC(F)(F)F)cc1 (stereo not shown) [LXIV]
